Measurements reported in the supplement of paper PMC7214452.
Where a name gives a salt, the structure may show the parent alone.

Key:
Test in all cases: normalized area under the dose-response curve (viability relative to DMSO control) (fraction); higher = less sensitive (more viable cells)
Conditions in all cases: exposure time not given
AMO1 (cancer type: MM) = test system: AMO1 (cancer type: MM)
Method: (§1)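 25 myeloma and 15 non-Hodgkin lymphoma cell lines were exposed to each of 76 drugs as 7-point log dilutions (0.01 nM–10 µM) in duplicate. Viability was read with CellTiter-Glo and normalised to DMSO (0.1%) and staurosporine (10 µM) plate controls. Normalised AUC was calculated by the trapezoidal method relative to the negative control.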

EJM (cancer type: MM) = test system: EJM (cancer type: MM)
Method: as §1

FR4 (cancer type: MM) = test system: FR4 (cancer type: MM)
Method: as §1

[1] = test system: Granta-519 (cancer type: Mantle)
Method: as §1

[2] = test system: HuT 78 (cancer type: TCL)
Method: as §1

JJN3 (cancer type: MM) = test system: JJN3 (cancer type: MM)
Method: as §1

[3] = test system: JVM2 (cancer type: Mantle)
Method: as §1

[4] = test system: JeKo-1 (cancer type: Mantle)
Method: as §1

KMS11 (cancer type: MM) = test system: KMS11 (cancer type: MM)
Method: as §1

[5] = test system: KMS12PE (cancer type: MM)
Method: as §1

KMS18 (cancer type: MM) = test system: KMS18 (cancer type: MM)
Method: as §1

KMS26 (cancer type: MM) = test system: KMS26 (cancer type: MM)
Method: as §1

[6] = test system: KMS28BM (cancer type: MM)
Method: as §1

[7] = test system: KMS28PE (cancer type: MM)
Method: as §1

KMS34 (cancer type: MM) = test system: KMS34 (cancer type: MM)
Method: as §1

[8] = test system: Karpas-299 (cancer type: TCL)
Method: as §1

L363 (cancer type: MM) = test system: L363 (cancer type: MM)
Method: as §1

LP1 (cancer type: MM) = test system: LP1 (cancer type: MM)
Method: as §1

MM1.R (cancer type: MM) = test system: MM1.R (cancer type: MM)
Method: as §1

MM1.S (cancer type: MM) = test system: MM1.S (cancer type: MM)
Method: as §1

[9] = test system: Mino (cancer type: Mantle)
Method: as §1

My-La (cancer type: TCL) = test system: My-La (cancer type: TCL)
Method: as §1

[10] = test system: NCI-H929 (cancer type: MM)
Method: as §1

[11] = test system: OCI-LY1 (cancer type: DLBCL)
Method: as §1

[12] = test system: OCI-LY19 (cancer type: DLBCL)
Method: as §1

[13] = test system: OCI-LY3 (cancer type: DLBCL)
Method: as §1

[14] = test system: OCI-MY5 (cancer type: MM)
Method: as §1

[15] = test system: OCI-MY5/CRBN (cancer type: MM)
Method: as §1

[16] = test system: OCI-MY5/Vec (cancer type: MM)
Method: as §1

[17] = test system: OCI-MY7 (cancer type: MM)
Method: as §1

OPM2 (cancer type: MM) = test system: OPM2 (cancer type: MM)
Method: as §1

[18] = test system: RPMI 8226 (cancer type: MM)
Method: as §1

SKMM2 (cancer type: MM) = test system: SKMM2 (cancer type: MM)
Method: as §1

[19] = test system: SR-786 (cancer type: TCL)
Method: as §1

[20] = test system: SU-DHL1 (cancer type: TCL)
Method: as §1

[21] = test system: SU-DHL2 (cancer type: DLBCL)
Method: as §1

[22] = test system: SU-DHL6 (cancer type: DLBCL)
Method: as §1

Se-Ax (cancer type: TCL) = test system: Se-Ax (cancer type: TCL)
Method: as §1

U266 (cancer type: MM) = test system: U266 (cancer type: MM)
Method: as §1

XG2 (cancer type: MM) = test system: XG2 (cancer type: MM)
Method: as §1

Compound	normalized area under the dose-response curve (AMO1 (cancer type: MM))	normalized area under the dose-response curve (EJM (cancer type: MM))	normalized area under the dose-response curve (FR4 (cancer type: MM))	normalized area under the dose-response curve [1]	normalized area under the dose-response curve [2]	normalized area under the dose-response curve (JJN3 (cancer type: MM))	normalized area under the dose-response curve [3]	normalized area under the dose-response curve [4]	normalized area under the dose-response curve (KMS11 (cancer type: MM))	normalized area under the dose-response curve [5]	normalized area under the dose-response curve (KMS18 (cancer type: MM))	normalized area under the dose-response curve (KMS26 (cancer type: MM))	normalized area under the dose-response curve [6]	normalized area under the dose-response curve [7]	normalized area under the dose-response curve (KMS34 (cancer type: MM))	normalized area under the dose-response curve [8]	normalized area under the dose-response curve (L363 (cancer type: MM))	normalized area under the dose-response curve (LP1 (cancer type: MM))	normalized area under the dose-response curve (MM1.R (cancer type: MM))	normalized area under the dose-response curve (MM1.S (cancer type: MM))	normalized area under the dose-response curve [9]	normalized area under the dose-response curve (My-La (cancer type: TCL))	normalized area under the dose-response curve [10]	normalized area under the dose-response curve [11]	normalized area under the dose-response curve [12]	normalized area under the dose-response curve [13]	normalized area under the dose-response curve [14]	normalized area under the dose-response curve [15]	normalized area under the dose-response curve [16]	normalized area under the dose-response curve [17]	normalized area under the dose-response curve (OPM2 (cancer type: MM))	normalized area under the dose-response curve [18]	normalized area under the dose-response curve (SKMM2 (cancer type: MM))	normalized area under the dose-response curve [19]	normalized area under the dose-response curve [20]	normalized area under the dose-response curve [21]	normalized area under the dose-response curve [22]	normalized area under the dose-response curve (Se-Ax (cancer type: TCL))	normalized area under the dose-response curve (U266 (cancer type: MM))	normalized area under the dose-response curve (XG2 (cancer type: MM))
Cn1c(CCCC(=O)O)nc2cc(N(CCCl)CCCl)ccc21 [Bendamustine hydrochloride]	0.849	0.815	0.955	0.885	0.779	0.938	0.684	0.87	0.849	0.74	0.832	0.677	0.869	0.847	0.755	0.831	0.84	0.946	0.67	0.68	0.86	0.862	0.75	0.832	0.834	0.784	0.835	0.932	0.921	0.74	0.842	0.879	0.955	0.74	0.794	0.795	0.911	0.719	0.92	0.875
Cn1ncc(Cl)c1-c1cc(C(=O)N[C@H](CN)Cc2cccc(F)c2)sc1Cl [Afuresertib]	0.414	0.486	0.591	0.821	0.758	0.55	0.652	0.808	0.439	0.49	0.293	0.499	0.363	0.282	0.211	0.765	0.375	0.384	0.2	0.26	0.813	0.784	0.33	0.657	0.739	0.851	0.398	0.742	0.637	0.7	0.369	0.331	0.49	0.713	0.48	0.913	0.816	0.416	0.525	0.436
Cc1noc2c1-c1ccccc1C(c1ccc(Cl)cc1)=N[C@H]2CC(N)=O [CPI0610]	0.526	0.782	0.691	0.905	0.775	0.556	0.693	0.889	0.642	0.69	0.746	0.492	0.841	0.704	0.571	0.72	0.601	0.687	0.67	0.61	0.686	0.748	0.63	0.922	0.771	0.938	0.554	0.721	0.717	0.52	0.685	0.629	0.675	0.713	0.794	0.696	0.868	0.721	0.583	0.728
CC[C@H](Nc1ncnc2[nH]cnc12)c1nc2cccc(F)c2c(=O)n1-c1ccccc1 [Idelalisib]	0.831	0.942	0.872	0.78	0.85	0.834	0.606	0.842	0.87	0.85	0.978	0.876	0.818	0.879	0.728	0.891	0.815	0.832	0.74	0.78	0.882	0.81	0.78	0.737	0.806	0.809	0.742	0.941	0.903	0.89	0.931	0.826	0.897	0.916	0.782	0.962	0.694	0.731	0.859	0.832
C=CC(=O)N1CCC[C@@H](n2nc(-c3ccc(Oc4ccccc4)cc3)c3c(N)ncnc32)C1 [Ibrutinib]	0.715	0.857	0.793	0.798	0.928	0.728	0.668	0.686	0.738	0.74	0.916	0.763	0.786	0.723	0.518	0.845	0.759	0.892	0.77	0.81	0.681	0.782	0.84	0.636	0.865	0.829	0.628	0.937	0.88	1	0.676	0.765	0.922	0.825	0.746	0.903	0.852	0.739	0.726	0.863
CCc1cnn2c(NCc3ccc[n+]([O-])c3)cc(N3CCCC[C@H]3CCO)nc12 [Dinaciclib]	0.03	0.0534	0.0504	0.625	0.0209	0.0469	0.259	0.0614	0.084	0.04	0.0366	0.0286	0.0793	0.169	0.124	0.0458	0.0142	0.0551	0.03	0.03	0.392	0.582	0.04	0.0794	0.414	0.148	0.0272	0.0017	0.0029	0.02	0.0465	0.0467	0.628	0.0218	0.0533	0.393	0.667	0.31	0.0357	0.0928
CC(C)(O)CNc1nc(Nc2ccnc(C(F)(F)F)c2)nc(-c2cccc(C(F)(F)F)n2)n1 [Enasidenib (Agios ag-221)]	0.864	0.865	0.944	0.975	0.86	0.822	0.787	0.881	0.95	0.9	0.772	0.887	0.894	0.819	0.853	0.9	0.802	0.772	0.81	0.8	0.877	0.947	0.92	0.957	0.972	1	0.723	0.903	0.847	0.81	0.749	0.92	0.905	0.908	0.888	0.918	0.92	0.837	0.914	0.899
Cc1ccc(C(=O)Nc2ccc(CN3CCN(C)CC3)c(C(F)(F)F)c2)cc1C#Cc1cnc2cccnn12 [Ponatinib]	0.431	0.427	0.451	0.755	0.527	0.344	0.44	0.52	0.458	0.48	0.479	0.593	0.551	0.501	0.298	0.719	0.461	0.408	0.5	0.57	0.501	0.615	0.52	0.678	0.726	0.859	0.361	0.665	0.613	0.48	0.419	0.237	0.55	0.673	0.239	0.797	0.79	0.417	0.381	0.454
